According to US11730778B2, “Method of increasing the level and production of metabolized phytonutrients in a subject” (ACCESS BUSINESS GROUP INTERNATIONAL LLC, priority 2019, dated 2023):

Test system: intestinal microbiota (fecal samples) of human subjects
Assay: in-vitro fermentations of fecal samples (intestinal microbiota-representing microarray) with phytonutrient precursor compounds
Type: in vitro ADME
Conditions: in-vitro fermentation; for Phytonutrient Producer Status: conversion of the phytonutrient precursor compound, S1: fecal sample of Subject 1 (S1); for Phytonutrient Producer Status: conversion of the phytonutrient precursor compound, S2: fecal sample of Subject 2 (S2); for Phytonutrient Producer Status: conversion of the phytonutrient precursor compound, S3: fecal sample of Subject 3 (S3); for Phytonutrient Producer Status: conversion of the phytonutrient precursor compound, S4: fecal sample of Subject 4 (S4); for Phytonutrient Producer Status: conversion of the phytonutrient precursor compound, S5: fecal sample of Subject 5 (S5); for Phytonutrient Producer Status: conversion of the phytonutrient precursor compound, S6: fecal sample of Subject 6 (S6); for Phytonutrient Producer Status: conversion of the phytonutrient precursor compound, S7: fecal sample of Subject 7 (S7); for Phytonutrient Producer Status: conversion of the phytonutrient precursor compound, S8: fecal sample of Subject 8 (S8); for Phytonutrient Producer Status: conversion of the phytonutrient precursor compound, S9: fecal sample of Subject 9 (S9); for Phytonutrient Producer Status: conversion of the phytonutrient precursor compound, S10: fecal sample of Subject 10 (S10); for Phytonutrient Producer Status: conversion of the phytonutrient precursor compound, S11: fecal sample of Subject 11 (S11)
Experimental: The phytonutrient producer status of 11 human subjects (“Subjects 1-11”, or “S1”-“S11”, respectively) was assessed by determining the microbial metabolism of various phytonutrient precursor compounds. […] The metabolism of the phytonutrient precursor compound in each assay was then determined via monitoring conversion (+), partial conversion (±), or no conversion (−) of the phytonutrient precursor compound over time.

SMILES	Phytonutrient Producer Status: conversion of the phytonutrient precursor compound, S1	Phytonutrient Producer Status: conversion of the phytonutrient precursor compound, S2	Phytonutrient Producer Status: conversion of the phytonutrient precursor compound, S3	Phytonutrient Producer Status: conversion of the phytonutrient precursor compound, S4	Phytonutrient Producer Status: conversion of the phytonutrient precursor compound, S5	Phytonutrient Producer Status: conversion of the phytonutrient precursor compound, S6	Phytonutrient Producer Status: conversion of the phytonutrient precursor compound, S7	Phytonutrient Producer Status: conversion of the phytonutrient precursor compound, S8	Phytonutrient Producer Status: conversion of the phytonutrient precursor compound, S9	Phytonutrient Producer Status: conversion of the phytonutrient precursor compound, S10	Phytonutrient Producer Status: conversion of the phytonutrient precursor compound, S11
O=c1oc2c(O)c(O)cc3c(=O)oc4c(O)c(O)cc1c4c23 [Ellagic acid]	±	±	±	−	−	−	−	±	−	±	−
COc1ccc([C@@H]2CC(=O)c3c(O)cc(O[C@@H]4O[C@H](CO[C@@H]5O[C@@H](C)[C@H](O)[C@@H](O)[C@H]5O)[C@@H](O)[C@H](O)[C@H]4O)cc3O2)cc1O [Hesperidin]	+	+	+	+	±	+	+	+	+	+	+
COc1cc(C[C@@H](CO[C@@H]2O[C@H](CO)[C@@H](O)[C@H](O)[C@H]2O)[C@H](CO[C@@H]2O[C@H](CO)[C@@H](O)[C@H](O)[C@H]2O)Cc2ccc(O)c(OC)c2)ccc1O [Secoisolariciresinol diglucoside]	+	+	±	+	+	±	±	±	+	+	+
O=c1c(O)c(-c2ccc(O)c(O)c2)oc2cc(O)cc(O)c12 [Quercetin]	−	+	+	+	−	+	+	−	−	+	−
OC[C@H]1O[C@@H](Oc2cc3c(O)cc(O)cc3[o+]c2-c2ccc(O)c(O)c2)[C@H](O)[C@@H](O)[C@@H]1O [Cyanidin-3-glucoside]	±	±	+	±	±	+	+	±	+	+	+
Oc1cc(O)c2c(c1)O[C@H](c1cc(O)c(O)c(O)c1)[C@H](O)C2 [Epigallocatechol]	+	+	±	+	+	+	+	+	+	+	+
